Data published in patent US8466113B2, “4-isopropylphenyl glucitol compounds as SGLT1 inhibitors” (Taisho Pharmaceutical Co., Ltd., priority 2009, dated 2013).

Assay: Kidney concentrations until one week after single oral administration
Type: in vivo
Conditions: Sprague-Dawley (SD/IGS), rat, male Sprague-Dawley rats; for concentration at 24 h / concentration at 72 h / concentration at 168 h: single oral 1 mg/kg
Experimental: (1) Changes in Kidney Concentrations of Compounds Disclosed in WO07/136116 Until One Week After Oral Administration
SD/IGS rats at 7 weeks of age (male, non-fasting, Charles River Laboratories Japan Inc.) were orally administered with compound 10 or 33 (1 mg/kg) or compound 11 (0.3 mg/kg) prepared in a 0.5% aqueous CMC solution. At 24, 72 and 168 hours after drug administration, the rats were exsanguinated via the postcaval vein under ether anesthesia, and their kidneys were excised after they were confirmed to be euthanized. After the tissue surface was washed with physiological saline, each tissue was measured for its weight and homogenized in 4 volumes of purified water under ice cooling. To each homogenate, an acetonitrile/methanol solution containing an internal standard substance was added to remove proteins, and the supernatant was then subjected to LC-MS/MS (Applied Biosystems API3000). Drug-derived ions generated by electrospray ionization in positive ion mode were detected by selective reaction monitoring. The peak area of the resulting extracted ion chromatogram was analyzed by the internal standard method to calculate the drug concentration in the homogenate.
The internal standard substance used for compounds 10 and 33 was (1S)-1,5-anhydro-1-[5-(4-ethoxybenzyl)-2-methoxy-4-methylphenyl]-1-thio-D-glucitol,ethyl-D5, while the internal standard substance used for compound 11 was compound 11 (trishydroxymethyl-D6; —C(CD2OH)3).

[1] = read-out: Concentration of compounds in kidney After 1 day
[2] = read-out: Concentration of compounds in kidney After 3 days
[3] = read-out: Concentration of compounds in kidney After 7 days

SMILES | concentration at 24 h [1] [ng/g] | concentration at 72 h [2] [ng/g] | concentration at 168 h [3] [ng/g] | concentration at 1 day (single oral 0.3 mg/kg, mean ± S.D., read-out: Concentration of compounds in kidney After 1 day) [ng/g] | concentration at 3 days (single oral 0.3 mg/kg, mean ± S.D., read-out: Concentration of compounds in kidney After 3 days) [ng/g] | concentration at 7 days (single oral 0.3 mg/kg, mean ± S.D., read-out: Concentration of compounds in kidney After 7 days) [ng/g]
Cc1cc(O)c([C@@H]2O[C@H](CO)[C@@H](O)[C@H](O)[C@H]2O)cc1Cc1ccc(CCNC(=O)NC(C)(C)CO)cc1 [compound 10] | 167 ± 36.3 | 124 ± 21.2 | 53.8 ± 7.61 |  |  | 
Cc1cc(O)c([C@@H]2O[C@H](CO)[C@@H](O)[C@H](O)[C@H]2O)cc1Cc1ccc(CCNC(=O)NC(CO)(CO)CO)cc1 [compound 11] |  |  |  | 63.5 ± 20.1 | 67.3 ± 3.15 | 48.7 ± 18.3
Cc1cc(O)c([C@@H]2O[C@H](CO)[C@@H](O)[C@H](O)[C@H]2O)cc1Cc1ccc(CCNC(=O)NC2CCN(Cc3ccccc3)CC2)cc1 [compound 33] | 29.8 ± 6.79 | 25.5 ± 8.68 | 16.2 ± 3.11 |  |  | 
